Results taken from patent EP0517126A1, “Use of diacetyl-splenopentin in chemotherapy and radiation therapy” (WOGEPHARM GmbH, priority 1991, dated 1992).
No end group written: not given here.

Legend:
Type in all cases: in vivo, BALB/c-Mäuse
Knochenmarkstammzellen [1] = test: Agar colony test (CFU test) of bone marrow stem cells after dexamethasone treatment, followed by DA-SP5; settings: after Dexamethason 150 mg/kg i.p. days +1 to +5, DA-SP5 10 µg i.p. three times weekly, normal value 121 ± 23
Excerpt: (§1) Es wurde gefunden, daß als Folge einer Therapie mit Zytostatika bzw. durch eine Bestrahlungstherapie sich im Blut der entsprechend behandelten Patienten die Zahl immunologischer Abwehrzellen vermindert. Dies resultiert, weil durch die o. g. Therapie auch die Stammzellen des Knochenmarks (aus diesen entstehen die immunologischen Abwehrzellen) zytotoxisch geschädigt werden. Die Substanz DA-SP5 erhöht die Nachbildung von immunologischen Abwehrzellen aus Stammzellen des Knochenmarks (W. DIEZEL et al. (1989): DD-PS 268160 Al). Es hat sich gezeigt, daß DA-SP5 direkt die Proliferation unreifer Stammzellen des Knochenmarks beschleunigen kann bzw. die Wirkung des Kolonien-stimulierrenden Faktors GM-CSF synergistisch erhöht. Überraschenderweise wurde jetzt festgestellt, daß als Folge dieser Wirkung die zytotoxische Schädigung von Knochenmarkstammzellen (und damit die verminderte Entstehung immunologischer Abwehrzellen) durch Chemotherapeutika bzw. infolge Bestrahlung der Zellen, kompensiert werden kann. Die erfindungsgemäße Wirkung wurde dadurch festgestellt, indem BALB/c-Mäuse hochdosiert mit zytotoxischen (Zellproliferations-hemmenden) Therapeutika systemisch behandelt wurden. Anschließend erfolgte eine Therapie mit DA-SP5 bzw. es wurde lediglich 0,9%ige NaCl-Lösung (Kontrallgruppe) appliziert. Während dieser Therapie wurde untersucht, ob die DE-SP5-behandelten Tiere zeitlich eher befähigt wurden "Knochenmarkstammzell-Kolonien" entsprechend der Norm zu bilden. Eine diesbezüglich schnellere Bildung korreliert mit einer schnelleren Entstehung entsprechender immunologischer Abwehrzellen im Blut. In einer weiteren Versuchsserie wurden BALB/c-Mäuse subletal bestrahlt, und anschließend ebenfalls mit oder ohne DA-SP5 behandelt. Auch bei diesen Tieren wurde untersucht, ob sie zeitlich eher befähigt waren, "Knochenmarkzell-Kolonien" entsprechend der Norm zu bilden. Das erfindungsgemäß verwendete Mittel wurde in Mengen von 0,05mg bis 1,0 mg pro kg Körpergewicht verabreicht. […]

Knochenmarkstammzellen [2] = test: Agar colony test (CFU test) of bone marrow stem cells after methotrexate treatment, followed by DA-SP5; settings: after Methotrexat 175 mg/kg days +1 to +5, DA-SP5 10 µg i.p. three times weekly, normal value 121 ± 23
Excerpt: as §1

Knochenmarkstammzellen [3] = test: Agar colony test (CFU test) of bone marrow stem cells after sublethal X-ray irradiation, followed by DA-SP5; settings: after single X-ray irradiation, DA-SP5 10 µg i.p. three times weekly, normal value 121 ± 23
Excerpt: as §1

With “Ac-RK(Ac)EVY [DA-SP5, (N^α-acetyl-L-arginyl)-(N^ε-acetyl-L-lysyl)-L-glutamyl-L-valyl-L-tyrosin]” the “Kolonien pro Femur (x̄ ± s)” value (Knochenmarkstammzellen [1]; Tag Nr. 10 of DA-SP5 therapy) was 10 ± 8, the “Kolonien pro Femur (x̄ ± s)” value (Knochenmarkstammzellen [1]; Tag Nr. 20 of DA-SP5 therapy) was 55 ± 21 and the “Kolonien pro Femur (x̄ ± s)” value (Knochenmarkstammzellen [1]; Tag Nr. 40 of DA-SP5 therapy) was 126 ± 18. The “Kolonien pro Femur (x̄ ± s)” value (Knochenmarkstammzellen [2]; Tag Nr. 10 of DA-SP5 therapy) was 9 ± 6, the “Kolonien pro Femur (x̄ ± s)” value (Knochenmarkstammzellen [2]; Tag Nr. 20 of DA-SP5 therapy) was 53 ± 24 and the “Kolonien pro Femur (x̄ ± s)” value (Knochenmarkstammzellen [2]; Tag Nr. 40 of DA-SP5 therapy) was 110 ± 20. The “Kolonien pro Femur (x̄ ± s)” value (Knochenmarkstammzellen [3]; Tag Nr.10 of DA-SP5 therapy) was 8 ± 6, the “Kolonien pro Femur (x̄ ± s)” value (Knochenmarkstammzellen [3]; Tag Nr.20 of DA-SP5 therapy) was 116 ± 10 and the “Kolonien pro Femur (x̄ ± s)” value (Knochenmarkstammzellen [3]; Tag Nr.40 of DA-SP5 therapy) was 126 ± 12.
